Measured values published in PMC10253812, “Novel 2-alkythio-4-chloro-N-[imino(heteroaryl)methyl]benzenesulfonamide Derivatives: Synthesis, Molecular Structure, Anticancer Activity and Metabolic Stability” (International Journal of Molecular Sciences, 2023).

Columns and labels:
HeLa cells [1] = assay: Apoptosis detection by Annexin V-PE and 7-AAD staining, flow cytometry; format: cell-based, human; conditions: 5 and 10 µM, 48 h
Description: In order to determine whether the anti-proliferative effects of 11, 12 and 13 were associated with their ability to induce apoptosis in HeLa cells, the induction of phosphatidylserine externalization by compounds 11, 12 and 13 was examined by flow cytometric analysis. The cells were treated with 2.5, 5 and 10 µM concentrations of 11, 12 and 13 for 24 and 48 h and stained with Annexin V-PE and 7-AAD. […] After 24 h of treatment, a significant increase in the early apoptotic population of cells was visible starting from the concentration of 5 µM.
Detection of apoptosis by Annexin V-PE and 7-AAD staining: Apoptosis induction was detected with an Annexin V-PE Apoptosis Detection Kit I (BD Biosciences, Belgium) according to the manufacturer’s instructions. The cells were treated with 11–13 (2.5, 5 and 10 µM) for 24 and 48 h. Following treatment, the cells were collected and stained with Annexin V-phycoerythrin (PE) and 7-amino-actinomycin (7-AAD) in Annexin-binding buffer for 15 min at RT in the dark. The acquisition was performed on a FACSCalibur cytometer (BD), and the data were analyzed with Flowing software (version 2.5).

[2] = system: HCT-116 (colon cancer) cell line; assay: MTT cell viability assay, HCT-116; format: cell-based; conditions: Homo sapiens, 72 h of incubation
Description: Compounds 8–24 were evaluated in vitro for their cytotoxic effect against three human cancer cell lines, i.e., HeLa (cervical cancer), HCT-116 (colon cancer) and MCF-7 (breast cancer), and the non-tumor cell line HaCaT using the MTT assay after 72 h of incubation. The results of tests are presented in Table 1 as IC50, indicating the concentration required for 50% inhibition of cell viability. Compounds 8–10 and 14–18 are not presented in the Table 1 because of their low potency (IC50 > 100 µM).
All chemicals, if not stated otherwise, were obtained from Sigma-Aldrich (St. Louis, MO, USA). The MCF-7, HeLa and HaCaT cell lines were purchased from Cell Lines Services (Eppelheim, Germany), and the HCT-116 cell line was purchased from ATCC (ATCC-No: CCL-247). The cells were cultured in Dulbecco’s modified Eagle’s medium (DMEM) supplemented with 10% fetal bovine serum, 2 mM glutamine, 100 units/mL of penicillin and 100 μg/mL of streptomycin. The cultures were maintained in a humidified atmosphere with 5% CO2 at 37 °C, in an incubator (Heraeus, HeraCell).
Cytotoxicity assay: Cell viability was determined using the MTT (3-(4,5-dimethylthiazol-2-yl)-2,5diphenyltetrazoliumbromide) assay. The cells were seeded in 96-well plates at a density of 5 × 10^3 cells/well and treated for 24, 48 and 72 h with the examined compounds in the concentration range 1–100 μM. Following treatment, MTT (0.5 mg/mL) was added to the medium, and the cells were further incubated for 2 h at 37 °C. the cells were lysed with DMSO, and the absorbance of the formazan solution was measured at 550 nm with a plate reader (Victor, 1420 multilabel counter). The experiment was performed in triplicate. The values are expressed as the mean ± SD of at least three independent experiments.

HeLa cells [3] = assay: Cell cycle distribution analysis (PI staining, flow cytometry); format: cell-based, human; conditions: 48 h; for percentage of cells in the sub-G1 phase of the cell cycle: HeLa, 5, 7 and 10 µM
Description: The effects of compounds 11, 12 and 13 on the cell cycle phase distribution of HeLa cells were assessed by flow cytometry. The cells were treated with 5, 7 and 10 µM concentrations of […] and 13 for 48 h and stained with PI.
Cell Cycle Distribution Analysis: The effects of 11, 12 and 13 on the cell cycle distribution in HeLa cells were determined by flow cytometry analysis. The cells were treated with 11, 12 and 13 (5, 7 and 10 µM) for 48 h, after which they were fixed in cold 70% ethanol for 24 h. The fixed cells were treated with 100 µg/mL of RNAse (Invitrogen, Germany) and stained with 10 µg/mL of PI (Invitrogen, Germany) for 30 min at RT. The acquisition was performed on a FACSCalibur cytometer (BD), and the data were analyzed with Flowing software (version 2.5).

| IC50 [2] | Compound | cells in the late stage of apoptosis (HeLa cells [1]) | percentage of cells in the sub-G1 phase of the cell cycle (HeLa cells [3]) | cell cycle arrest (HeLa cells [3]; HeLa, 7 and 10 μM) |
| --- | --- | --- | --- | --- |
| 11 ± 0.3 µM | Cc1cc(S(=O)(=O)NC(=N)n2ccn(C)c2=S)c(SCc2ccc(Cl)cc2)cc1Cl [Compound 11, 4-Chloro-N-[imino(3-methyl-2-thioxo-2,3-dihydro-1H-imidazol-1-yl)methyl]-5-methyl-2-(4-chlorobenzylthio)benzenesulfonamide] | significant increase in cells in the late stage of apoptosis | increase in the percentage of cells in the sub-G1 phase | – |
| 73 ± 2 µM | Cc1cc(S(=O)(=O)NC(=N)n2ccn(C)c2=S)c(SCc2cccc3ccccc23)cc1Cl [Compound 13, 4-Chloro-N-[imino(3-methyl-2-thioxo-2,3-dihydro-1H-imidazol-1-yl)methyl]-5-methyl-2-(naphthalen-1-ylmethylthio)benzenesulfonamide] | significant increase in cells in the late stage of apoptosis | increase in the percentage of cells in the sub-G1 phase | – |
| > 100 µM | Cc1cc(S(=O)(=O)NC(=N)n2ccn(C)c2=S)c(SCc2cc3c(cc2Cl)OCO3)cc1Cl [Compound 12] | significant increase in cells in the late stage of apoptosis | increase in the percentage of cells in the sub-G1 phase | induced G2/M arrest |
